According to ChEMBL document CHEMBL4118122, “Identification and biological evaluation of thiazole-based inverse agonists of RORγt” (Bioorg Med Chem Lett, 2018):

Legend:
Adenosine receptor A2a [1] = molecular target: T1, Adenosine receptor A2a (Homo sapiens, UniProt P29274); experiment: Displacement of [3H]-CGS 21680 from human recombinant adenosine A2A receptor at 10 uM after 120 mins by scintillation counting analysis relative to control
[2] = molecular target: C-C chemokine receptor type 1 (Homo sapiens) (UniProt P32246); experiment: Displacement of [125I]MIP-1alpha from human recombinant CCR1 receptor at 10 uM after 120 mins by scintillation counting analysis relative to control
C-C chemokine receptor type 1 (Homo sapiens), sequence (P32246 whole entry): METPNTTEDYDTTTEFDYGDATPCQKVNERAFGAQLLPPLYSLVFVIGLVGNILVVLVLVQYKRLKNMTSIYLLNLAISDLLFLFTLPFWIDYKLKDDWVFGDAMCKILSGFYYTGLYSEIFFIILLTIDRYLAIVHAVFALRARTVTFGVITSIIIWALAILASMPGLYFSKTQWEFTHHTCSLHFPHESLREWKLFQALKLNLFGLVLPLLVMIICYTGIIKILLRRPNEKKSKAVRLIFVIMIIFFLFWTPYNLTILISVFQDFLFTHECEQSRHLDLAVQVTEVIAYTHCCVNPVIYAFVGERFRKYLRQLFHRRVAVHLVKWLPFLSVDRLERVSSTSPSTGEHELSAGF

Histamine H1 receptor [3] = molecular target: T2, Histamine H1 receptor (Homo sapiens, UniProt P35367); experiment: Displacement of [3H]pyrilamine from human recombinant histamine H1 receptor at 10 uM after 60 mins by scintillation counting analysis relative to control
T2 sequence (P35367 whole entry): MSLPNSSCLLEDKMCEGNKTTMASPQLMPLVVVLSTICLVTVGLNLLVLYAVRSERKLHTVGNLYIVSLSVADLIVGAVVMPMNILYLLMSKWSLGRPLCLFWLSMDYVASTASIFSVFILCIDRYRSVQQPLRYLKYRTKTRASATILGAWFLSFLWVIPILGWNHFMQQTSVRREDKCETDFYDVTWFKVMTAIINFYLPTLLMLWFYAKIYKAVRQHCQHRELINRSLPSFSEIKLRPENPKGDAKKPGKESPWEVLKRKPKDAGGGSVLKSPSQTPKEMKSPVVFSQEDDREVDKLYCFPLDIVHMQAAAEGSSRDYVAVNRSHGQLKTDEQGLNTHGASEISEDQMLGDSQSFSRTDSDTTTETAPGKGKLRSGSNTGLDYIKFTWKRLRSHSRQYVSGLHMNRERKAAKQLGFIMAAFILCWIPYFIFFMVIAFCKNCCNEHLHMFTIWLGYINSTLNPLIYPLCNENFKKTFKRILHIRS

[4] = molecular target: Muscarinic acetylcholine receptor M3 (Homo sapiens, UniProt P20309); experiment: Displacement of [3H]4-DAMP from human recombinant M3 receptor at 10 uM after 60 mins by scintillation counting analysis relative to control
[5] = molecular target: Neuromedin-K receptor (Homo sapiens) (UniProt P29371); experiment: Displacement of [3H]SR 142801 from human recombinant NK3 receptor at 10 uM after 120 mins by scintillation counting analysis relative to control
[6] = molecular target: T3, Kappa-type opioid receptor (Homo sapiens, UniProt P41145); experiment: Displacement of [3H]U69593 from human kappa receptor at 10 uM after 60 mins by scintillation counting analysis relative to control
T3 sequence (P41145 whole entry): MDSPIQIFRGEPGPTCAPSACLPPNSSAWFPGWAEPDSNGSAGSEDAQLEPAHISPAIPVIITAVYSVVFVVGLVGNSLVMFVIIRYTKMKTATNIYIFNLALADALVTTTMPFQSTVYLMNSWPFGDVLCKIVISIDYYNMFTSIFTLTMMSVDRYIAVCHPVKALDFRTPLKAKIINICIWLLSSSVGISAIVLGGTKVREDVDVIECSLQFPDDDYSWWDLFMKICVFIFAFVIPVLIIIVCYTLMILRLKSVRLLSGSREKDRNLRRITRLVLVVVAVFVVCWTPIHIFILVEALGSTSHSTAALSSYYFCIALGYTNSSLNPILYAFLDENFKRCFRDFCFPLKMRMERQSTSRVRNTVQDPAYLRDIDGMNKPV

[7] = molecular target: 5-hydroxytryptamine receptor 3A (Homo sapiens) (UniProt P46098); experiment: Displacement of [3H]BRL 43694 from human recombinant 5-HT3 receptor at 10 uM after 120 mins by scintillation counting analysis relative to control
5-hydroxytryptamine receptor 3A (Homo sapiens), sequence (P46098 whole entry): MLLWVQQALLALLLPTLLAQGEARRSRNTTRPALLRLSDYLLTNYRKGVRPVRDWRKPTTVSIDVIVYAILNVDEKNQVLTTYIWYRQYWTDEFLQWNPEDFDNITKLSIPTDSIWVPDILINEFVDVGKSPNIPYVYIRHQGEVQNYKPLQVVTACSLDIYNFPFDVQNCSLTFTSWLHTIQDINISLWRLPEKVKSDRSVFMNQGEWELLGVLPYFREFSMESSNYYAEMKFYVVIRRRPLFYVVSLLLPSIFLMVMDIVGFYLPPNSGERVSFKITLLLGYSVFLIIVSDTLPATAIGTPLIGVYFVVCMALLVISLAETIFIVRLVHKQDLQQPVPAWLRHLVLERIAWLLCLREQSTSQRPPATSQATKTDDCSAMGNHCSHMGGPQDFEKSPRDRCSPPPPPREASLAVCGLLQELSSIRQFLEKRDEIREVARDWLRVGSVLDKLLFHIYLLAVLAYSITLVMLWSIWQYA

[8] = molecular target: 5-hydroxytryptamine receptor 6 (Homo sapiens, UniProt P50406); experiment: Displacement of [3H]LSD from human recombinant 5-HT6 receptor at 10 uM after 120 mins by scintillation counting analysis relative to control
[9] = molecular target: Vasoactive intestinal polypeptide receptor 1 (Homo sapiens) (UniProt P32241); experiment: Displacement of [125I]VIP from human recombinant VPAC1 receptor at 10 uM after 60 mins by scintillation counting analysis relative to control
Vasoactive intestinal polypeptide receptor 1 (Homo sapiens), sequence (P32241 whole entry): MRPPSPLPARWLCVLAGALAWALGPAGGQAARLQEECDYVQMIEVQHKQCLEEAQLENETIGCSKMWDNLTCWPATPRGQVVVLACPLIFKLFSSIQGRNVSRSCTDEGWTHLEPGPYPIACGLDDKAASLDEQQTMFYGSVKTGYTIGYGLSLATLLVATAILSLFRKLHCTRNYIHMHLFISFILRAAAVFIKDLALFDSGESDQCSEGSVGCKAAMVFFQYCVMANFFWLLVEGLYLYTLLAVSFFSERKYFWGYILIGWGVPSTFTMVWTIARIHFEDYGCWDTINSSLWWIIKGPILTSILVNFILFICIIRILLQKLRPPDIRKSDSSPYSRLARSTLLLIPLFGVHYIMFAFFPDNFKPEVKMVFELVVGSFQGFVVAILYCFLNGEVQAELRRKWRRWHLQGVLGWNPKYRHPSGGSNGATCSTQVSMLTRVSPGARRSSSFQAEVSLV

Rattus norvegicus [10] = species: Rattus norvegicus; experiment: Displacement of [125I]alpha-dendrotoxin from rat brain voltage-gated K channel at 10 uM after 60 mins by scintillation counting analysis relative to control
[11] = molecular target: Sodium-dependent noradrenaline transporter (Homo sapiens, UniProt P23975); experiment: Displacement of [3H]nisoxetine from recombinant human norepinephrine transporter at 10 uM after 120 mins by scintillation counting analysis relative to control
Adenosine receptor A2a [12] = molecular target: T1, Adenosine receptor A2a; experiment: Displacement of [3H]-CGS 21680 from human recombinant adenosine A2A receptor at 1 uM after 120 mins by scintillation counting analysis relative to control
[13] = molecular target: Type-1 angiotensin II receptor (Homo sapiens) (UniProt P30556); experiment: Displacement of [125I][Sar1,Ile8]-AT-II from human recombinant AT1 receptor at 1 uM after 120 mins by scintillation counting analysis relative to control
[14] = molecular target: B2 bradykinin receptor (Homo sapiens) (UniProt P30411); experiment: Displacement of [3H]bradykinin from human recombinant B2 receptor at 1 uM after 60 mins by scintillation counting analysis relative to control
Melanocortin receptor 4 = Melanocortin receptor 4 (Homo sapiens, UniProt P32245); experiment: Displacement of [125I]NDP-alpha-MSH from human recombinant MC4 receptor at 1 uM after 120 mins by scintillation counting analysis relative to control
Melanocortin receptor 4, sequence (P32245 whole entry): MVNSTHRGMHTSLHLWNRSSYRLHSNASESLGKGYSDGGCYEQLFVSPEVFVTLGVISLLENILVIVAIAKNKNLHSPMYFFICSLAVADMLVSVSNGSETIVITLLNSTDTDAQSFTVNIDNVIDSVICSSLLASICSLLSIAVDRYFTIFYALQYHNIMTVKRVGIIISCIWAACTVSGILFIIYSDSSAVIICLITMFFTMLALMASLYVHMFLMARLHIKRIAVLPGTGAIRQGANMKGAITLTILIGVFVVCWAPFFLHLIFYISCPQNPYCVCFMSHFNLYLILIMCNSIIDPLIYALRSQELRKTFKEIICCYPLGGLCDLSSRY

[15] = molecular target: T3, Kappa-type opioid receptor; experiment: Displacement of [3H]U69593 from human kappa receptor at 1 uM after 60 mins by scintillation counting analysis relative to control
[16] = molecular target: 5-hydroxytryptamine receptor 2A (Homo sapiens, UniProt P28223); experiment: Displacement of [3H]ketanserin human recombinant 5-HT2A receptor at 1 uM after 60 mins by scintillation counting analysis relative to control
5-hydroxytryptamine receptor 2A, sequence (P28223 whole entry): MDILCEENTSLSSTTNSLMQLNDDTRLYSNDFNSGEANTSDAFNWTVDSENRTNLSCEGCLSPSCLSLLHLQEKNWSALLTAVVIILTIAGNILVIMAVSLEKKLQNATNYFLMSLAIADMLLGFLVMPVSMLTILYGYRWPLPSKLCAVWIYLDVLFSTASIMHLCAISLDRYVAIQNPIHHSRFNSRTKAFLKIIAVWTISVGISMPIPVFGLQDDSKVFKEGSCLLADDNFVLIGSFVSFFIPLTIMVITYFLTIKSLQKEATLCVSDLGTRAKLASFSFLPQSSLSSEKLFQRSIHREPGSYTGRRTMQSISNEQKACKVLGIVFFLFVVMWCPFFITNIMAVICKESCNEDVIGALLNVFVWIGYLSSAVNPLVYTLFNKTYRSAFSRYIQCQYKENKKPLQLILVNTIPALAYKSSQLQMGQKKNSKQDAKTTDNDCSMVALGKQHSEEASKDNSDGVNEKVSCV

[17] = molecular target: Vasoactive intestinal polypeptide receptor 1 (Homo sapiens) (UniProt P32241); experiment: Displacement of [125I]VIP from human recombinant VPAC1 receptor at 1 uM after 60 mins by scintillation counting analysis relative to control
Rattus norvegicus [18] = species: Rattus norvegicus; experiment: Displacement of [3H]batrachotoxinin from rat brain voltage gated sodium ion channel site 2 at 1 uM after 60 mins by scintillation counting analysis relative to control
[19] = molecular target: Adrenergic receptor alpha-2 (Rattus norvegicus, UniProt P22086+P19328+P22909); experiment: Displacement of [3H]-RX 821002 from rat alpha2 adrenoceptor after 60 mins by scintillation counting analysis; assay type: protein assay
B2 bradykinin receptor = B2 bradykinin receptor (Homo sapiens, UniProt P30411); experiment: Displacement of [3H]bradykinin from human recombinant B2 receptor after 60 mins by scintillation counting analysis
Histamine H1 receptor [20] = molecular target: T2, Histamine H1 receptor; experiment: Displacement of [3H]pyrilamine from human recombinant histamine H1 receptor after 60 mins by scintillation counting analysis
Histamine H2 receptor = Histamine H2 receptor (Homo sapiens, UniProt P25021); experiment: Displacement of [125I]APT from human recombinant histamine H2 receptor after 120 mins by scintillation counting analysis
Histamine H2 receptor, sequence (P25021 whole entry): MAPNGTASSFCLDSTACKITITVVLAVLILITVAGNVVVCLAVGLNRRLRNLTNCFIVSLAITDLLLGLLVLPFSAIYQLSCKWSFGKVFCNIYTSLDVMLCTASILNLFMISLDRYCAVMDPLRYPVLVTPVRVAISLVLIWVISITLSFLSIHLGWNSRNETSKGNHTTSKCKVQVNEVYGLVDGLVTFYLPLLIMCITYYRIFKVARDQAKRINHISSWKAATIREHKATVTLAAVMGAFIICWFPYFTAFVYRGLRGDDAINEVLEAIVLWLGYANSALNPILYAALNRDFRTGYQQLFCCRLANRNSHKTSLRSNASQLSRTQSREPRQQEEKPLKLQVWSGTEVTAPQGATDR

Mu-type opioid receptor = Mu-type opioid receptor (Homo sapiens, UniProt P35372); experiment: Displacement of [3H]DAMGO from human recombinant mu receptor after 120 mins by scintillation counting analysis
Nociceptin receptor = Nociceptin receptor (Homo sapiens, UniProt P41146); experiment: Displacement of [3H]nociceptin from human recombinant NOP receptor after 60 mins by scintillation counting analysis
Nociceptin receptor, sequence (P41146 whole entry): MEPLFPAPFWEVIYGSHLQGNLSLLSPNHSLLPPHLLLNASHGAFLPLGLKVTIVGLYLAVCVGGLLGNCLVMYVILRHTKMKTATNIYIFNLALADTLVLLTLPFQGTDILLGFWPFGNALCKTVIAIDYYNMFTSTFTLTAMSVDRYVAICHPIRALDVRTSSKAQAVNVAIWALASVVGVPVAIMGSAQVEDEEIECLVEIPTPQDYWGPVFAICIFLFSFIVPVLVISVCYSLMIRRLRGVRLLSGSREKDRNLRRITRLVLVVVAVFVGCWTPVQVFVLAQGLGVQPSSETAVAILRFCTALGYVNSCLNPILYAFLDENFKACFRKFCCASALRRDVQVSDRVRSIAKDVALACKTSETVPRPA

[21] = molecular target: 5-hydroxytryptamine receptor 3A (Homo sapiens, UniProt P46098); experiment: Displacement of [3H]BRL 43694 from human recombinant 5-HT3 receptor after 120 mins by scintillation counting analysis
5-hydroxytryptamine receptor 3A, sequence (P46098 whole entry): as the sequence (P46098 whole entry) above

[22] = molecular target: Small conductance calcium-activated potassium channel (Rattus norvegicus, UniProt P70604+P70606+P70605); experiment: Displacement of [125I]apamin from rat brain SkCa channel after 60 mins by scintillation counting analysis
[23] = molecular target: Aurora kinase B (Homo sapiens) (UniProt Q96GD4); experiment: Inhibition of recombinant full length His-tagged human Aurora B expressed in baculovirus expression system at 10 uM in presence of ATP relative to control
[24] = molecular target: Tyrosine-protein kinase Blk (Homo sapiens) (UniProt P51451); experiment: Inhibition of recombinant full length His-tagged human Blk cytoplasmic domain expressed in Baculovirus expression system at 10 uM in presence of ATP relative to control
Tyrosine-protein kinase Blk (Homo sapiens), sequence (P51451 2-505 limits assumed): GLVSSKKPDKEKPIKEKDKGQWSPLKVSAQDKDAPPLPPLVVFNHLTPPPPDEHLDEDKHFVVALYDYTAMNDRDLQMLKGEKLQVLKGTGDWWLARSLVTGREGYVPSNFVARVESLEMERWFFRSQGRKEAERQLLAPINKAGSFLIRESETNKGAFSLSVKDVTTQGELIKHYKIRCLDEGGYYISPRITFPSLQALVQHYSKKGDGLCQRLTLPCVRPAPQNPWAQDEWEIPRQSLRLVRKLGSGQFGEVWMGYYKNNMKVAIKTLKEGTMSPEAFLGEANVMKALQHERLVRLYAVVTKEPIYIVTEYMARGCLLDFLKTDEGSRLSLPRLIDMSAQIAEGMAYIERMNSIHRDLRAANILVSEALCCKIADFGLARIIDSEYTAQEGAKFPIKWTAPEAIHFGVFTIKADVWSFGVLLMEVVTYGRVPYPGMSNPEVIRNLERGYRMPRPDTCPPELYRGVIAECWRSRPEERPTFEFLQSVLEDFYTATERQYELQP

[25] = molecular target: Calcium/calmodulin-dependent protein kinase type II subunit beta (Homo sapiens) (UniProt Q13554); experiment: Inhibition of recombinant full length His-tagged human CaMK2beta expressed in baculovirus expression system at 10 uM in presence of ATP relative to control
[26] = molecular target: Insulin receptor (Homo sapiens) (UniProt P06213); experiment: Inhibition of recombinant His-tagged human InsR (1011 to 1382 residues) expressed in baculovirus expression system at 10 uM in presence of ATP relative to control
[27] = molecular target: Serine/threonine-protein kinase PLK1 (Homo sapiens) (UniProt P53350); experiment: Inhibition of full length recombinant His-tagged human PLK1 expressed in baculovirus expression system at 10 uM in presence of ATP relative to control
[28] = Tmax in Sprague-Dawley rat at 5 mg/kg, po; assay type: ADME, organism-based; details: in vivo

T1 sequence (P29274 whole entry): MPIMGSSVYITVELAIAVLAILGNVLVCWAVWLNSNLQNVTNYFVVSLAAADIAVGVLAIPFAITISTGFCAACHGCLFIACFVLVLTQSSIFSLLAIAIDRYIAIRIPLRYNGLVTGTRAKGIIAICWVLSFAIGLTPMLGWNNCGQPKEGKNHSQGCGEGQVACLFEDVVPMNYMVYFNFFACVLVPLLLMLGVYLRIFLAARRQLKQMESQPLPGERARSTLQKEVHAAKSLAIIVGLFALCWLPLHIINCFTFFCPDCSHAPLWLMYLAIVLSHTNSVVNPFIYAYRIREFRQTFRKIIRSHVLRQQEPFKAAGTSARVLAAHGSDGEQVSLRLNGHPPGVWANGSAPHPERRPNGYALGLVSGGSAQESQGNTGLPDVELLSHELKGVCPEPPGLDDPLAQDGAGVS

Q: For `CC(C)(C)NS(=O)(=O)c1ccc(-c2sc(C(=O)N[C@H]3C[C@H](C(=O)O)C3)nc2CC2CCCCC2)c2ccccc12`, which inhibition (Adenosine receptor A2a [1]) is on record?
A: The inhibition was 20%.

Q: What about the inhibition [2] of the same compound?
A: Its inhibition is less than 10%.

Q: What about the inhibition (Histamine H1 receptor [3]) of the same compound?
A: Its inhibition is 54%.

Q: What about the inhibition [4] of the same compound?
A: Its inhibition is 23%.

Q: What about the inhibition [5] of the same compound?
A: The inhibition was 32%.

Q: And the inhibition [6]?
A: Its inhibition is less than 10%.

Q: And the inhibition [7]?
A: The inhibition was 12%.

Q: And the inhibition [8]?
A: The inhibition was 33%.

Q: What about the inhibition [9] of the same compound?
A: Its inhibition is less than 10%.

Q: And the inhibition (Rattus norvegicus [10])?
A: Its inhibition is less than 10%.

Q: What about the inhibition [11] of the same compound?
A: Its inhibition is 27%.

Q: And the inhibition (Adenosine receptor A2a [12])?
A: Its inhibition is 21%.

Q: And the inhibition [13]?
A: Its inhibition is less than 10%.

Q: And the inhibition [14]?
A: The inhibition was less than 10%.

Q: And the inhibition (Melanocortin receptor 4)?
A: Its inhibition is less than 10%.

Q: And the inhibition [15]?
A: The inhibition was less than 10%.

Q: What about the inhibition [16] of the same compound?
A: Its inhibition is less than 10%.

Q: And the inhibition [17]?
A: Its inhibition is less than 10%.

Q: What about the inhibition (Rattus norvegicus [18]) of the same compound?
A: The inhibition was less than 10%.

Q: And the IC50 [19]?
A: The IC50 was 43 nM.

Q: What about the IC50 (B2 bradykinin receptor) of the same compound?
A: Its IC50 is 21 nM.

Q: What about the IC50 (Histamine H1 receptor [20]) of the same compound?
A: The IC50 was 1.7 nM.

Q: What about the IC50 (Histamine H2 receptor) of the same compound?
A: The IC50 was 142 nM.

Q: And the IC50 (Mu-type opioid receptor)?
A: Its IC50 is 1.1 nM.

Q: What about the IC50 (Nociceptin receptor) of the same compound?
A: The IC50 was 0.98 nM.

Q: And the IC50 [21]?
A: The IC50 was 4.9 nM.

Q: What about the IC50 [22] of the same compound?
A: The IC50 was 0.012 nM.

Q: What about the inhibition [23] of the same compound?
A: The inhibition was 8%.

Q: What about the inhibition [24] of the same compound?
A: Its inhibition is -5%.

Q: What about the inhibition [25] of the same compound?
A: The inhibition was 6%.

Q: What about the inhibition [26] of the same compound?
A: Its inhibition is -4%.

Q: And the inhibition [27]?
A: Its inhibition is -6%.

Q: What about the Tmax [28] of the same compound?
A: The Tmax was 48 min.
